Experimental findings from a melting point compilation (Tetko et al.; mined from patent text by program, amines drawn as free bases though some values may be those of a salt) are described below.

The melting point is the temperature of the solid-liquid transition.

The compound `CCCc1c(O)ccc2oc(Cc3ccc(O)cc3)c(C)c12` yielded a melting point of 138 to 142 °C. With `COc1ccc(C(=O)Nc2ccccc2)cc1NCc1cccc(F)c1` the figure was 137 to 140 °C; with `CC(C(=O)O)c1cc(CC(=O)O)c(-c2ccccc2)s1` (centres undefined), 145 to 146 °C; with `O=C1NCCN(NC(=O)c2ccc(O)c(O)c2)C1=O`, 294 °C. With `O=C1CCc2cc3c(cc21)CCC3` the figure was 72.4 to 74.8 °C. With `Nc1nc(Cl)c(N)c(NCCO)n1` the figure was 164 to 167 °C; with `CON=C(C(=O)O)C1(CCl)OCCO1`, 80 to 81 °C. In turn, `C=CCOc1c(Cl)cc(-c2ccc(=O)[nH]n2)cc1Cl` gave a melting point of 214 to 215 °C. The result for `COC(=O)c1cnc(C(=O)O)nc1` reads 152 to 154 °C.

In turn, `CCCCCCCN(CCCCCS(=O)(=O)c1nc(-c2ccccc2)c(-c2ccccc2)[nH]1)C(=O)Nc1ccc(F)cc1F` returned a melting point of 66 to 68 °C. As to `OCC1CN(C(c2ccccc2)c2ccccc2)C1`, the melting point was in the range of 114 to 116 °C. As to `Cc1cc(-c2cc(F)c(F)cc2-c2ccc(S(N)(=O)=O)cc2)ccc1F`, the melting point is 152 °C. The result for `CC(Cc1ccc(C(=O)C(C)(C)O)cc1)C(=O)O` (centres undefined) reads 57 °C; that for `C=CCOc1c(N)cc2c(C)cc(=O)oc2c1C`, 146 to 147 °C; that for `CO[C@@H](C(=O)N[C@H]1CC[C@@H](OC(=O)CCc2ccccc2)CNC1=O)[C@H](O)[C@@H](O)[C@H](O)/C=C/C(C)(C)C`, 75 to 77 °C.

Compound `COC(=O)c1c(C(F)F)nc(C(F)(F)F)c(C2CC(C)N(O)C2)c1CC1CC1` (centres undefined) showed a melting point of 142 to 144 °C. With `COc1cccc(CNc2ncnc3c2sc2nc(N4CCSCC4)c4c(c23)CC(C)(C)CC4)c1OC` the figure was 112 to 114 °C; with `Cc1cn(-c2ccc([N+](=O)[O-])c(C)c2)c(C)n1`, 136 to 138 °C. Turning to `Cc1cc(-c2cc(C(F)(F)F)n3nccc3n2)ccc1C(F)(F)F`, the melting point was determined as 87 °C. The result for `CCCc1ccnc2c(=O)[nH]c(-c3cc(S(=O)(=O)N4CCNCC4)ccc3OCC)nc12` reads 178 to 180 °C; that for `CC(=O)NC(C(=O)NC1c2cc(C#N)ccc2OC(C)(C)C1O)c1ccccc1` (centres undefined), 133 to 145 °C; that for `CN1C(=O)C(=Cc2cc(C(C)(C)C)c(O)c(C(C)(C)C)c2)SC1O` (centres undefined), 165 to 170 °C. The result for `COC(=O)/C=C/C(=O)OCC(=O)N1CCOCC1` reads 124 to 126 °C; that for `Clc1nc2cc3ccccc3cc2nc1Cl`, 239 to 242 °C. Compound `CC(C)C[C@@H](C=NNC(N)=O)NC(=O)[C@H](Cc1c[nH]cn1)NC(=O)C(CCCCc1ccccc1)Cc1cccc2ccccc12` (some centres undefined) came in with a melting point of 108 to 114 °C. The result for `NC(=O)OC[C@H](Cc1ccccc1)NC(=O)OCc1ccccc1` reads 121 to 128 °C; that for `O=C(O)c1ccc(NC(=O)C(CS)Cc2ccccc2)cc1Cl` (centres undefined), 65 to 70 °C.

As to `Cc1nc(N2CCN(Cc3ccc(F)cc3)C2=O)sc1C(=O)NCCN1CCCC1`, the melting point lay in the range of 183 to 184 °C. `O=c1[nH]c2sccc2c(=O)n1CCN1CCN(c2ccccc2)CC1` returned a melting point of 228 to 230 °C.

The compound `O=C(O)C(c1ccccc1)n1cnc2[nH]ncc2c1=S` (centres undefined) registered a melting point of 95 to 98 °C.

For `COc1nnc2cc(Cl)ccc2n1`, the melting point worked out at 122 °C. `Cc1c(C(=O)Nc2ccc(N3CCN(C4CCOCC4)CC3)c(C#N)c2)cnn1-c1ccc(Cl)c(Cl)c1` showed a melting point of 242 °C. The compound `Cn1nc(-c2ncc(Cl)cc2F)c(Cl)c1OC(F)F` registered a melting point of 95 to 96 °C. As to `Cc1nc(C(C)(C)C)ccc1/C=C/C(=O)Nc1ccc2[nH]c(CO)cc2c1`, the melting point was 213 °C.

`O=C1CCC(N2C(=O)c3cccc(CNC(=O)Nc4ccc5ccccc5c4)c3C2=O)C(=O)N1` (centres undefined) displayed a melting point of 201 to 203 °C.

`COc1ccc(C(=O)c2c(F)cccc2F)cc1CC(=O)O` displayed a melting point of 187 °C. With `CC12CCC3C(CCC4CC(F)CCC43C)C1CCC2=O` (centres undefined) the figure was 126 to 127 °C. The result for `c1cc(-c2cc3nccnc3[nH]2)ccn1` reads 324 to 326 °C. `O=c1[nH]ncn1C(c1cccc(Cl)c1)c1ccnc2ccccc12` (centres undefined) yielded a melting point of 244 °C.

`COc1cccc(-c2nccc3[nH]c(=O)c(-c4noc(C)n4)cc23)c1` yielded a melting point of 281 to 282 °C. With `CCCCOc1c(CNC(=O)OC(C)(C)C)n(CC(C)C)c(=O)c2ccc(C(=O)N(C)OC)cc12` the figure was 142 to 143 °C; with `Cc1ccc2cccc(N(Cc3c(Cl)ccc([N+](=O)[O-])c3Cl)C(=O)OC(C)(C)C)c2n1`, 130 to 131 °C; with `O=C(CC(F)(F)F)N[C@H]1CC[C@H](CCN2CCC(c3cccc4c3CCO4)CC2)CC1`, 197 °C. Compound `O=C(Nc1ccc(Oc2ccnc(NCC3OCCO3)n2)c2ccccc12)c1cc(F)cc(N2CCOCC2)c1` showed a melting point of 122 to 124 °C. With `CSC(C)(C)C=NOC(=O)N(C)SN(C)C` the figure was 48 to 50 °C; with `CC1(C2CCC3C4CCC5CC=CCC5(C)C4C(=O)CC32C)OCCO1` (centres undefined), 130 to 135 °C. With `CN(CCSC(=O)Cc1ccccc1Nc1c(Cl)cccc1Cl)CC1(S)CCCCC1` the figure was 55 °C; with `NS(=O)(=O)c1ccc(-c2noc(-c3cnc4ccc(-c5ccc(C(F)(F)F)cc5)cn34)n2)s1`, 280 °C; with `CC(=NO)c1ccccc1N`, 55 to 60 °C. With `CCCCc1nc2ccc(O)cc2c(=O)n1Cc1ccc(-c2ccccc2-c2nnn[nH]2)cc1` the figure was 212 to 214 °C. With `CC1(C)CC(O)CC(C)(C)N1OC1CCCCC1`, the melting point lay in the range of 74 to 78 °C.

Turning to `O=C(O)C[C@H]1CCCCN1C(=O)C=Cc1c(-c2ccccc2)nn2ccccc12`, the melting point lay within 165 to 166 °C. Compound `CCC(=O)C1c2cccc(O)c2C(=O)c2c(OC(=O)C(C)C)cccc21` (centres undefined) showed a melting point of 111 °C. `CCn1c(=O)c2c(nc(/C=C/c3ccc(OC)c(C)c3)n2C)n(CC)c1=O` had a melting point of 176 to 178 °C. Compound `CCN(CC)C(=O)CCc1nc(-c2ccccc2)nc2ccc(Br)cc12` displayed a melting point of 146 °C. For `CC(C)(C)c1cccc(S(=O)(=O)n2c(Cc3ccc(C(=O)O)cc3)cc3cc(C(F)(F)F)ccc32)c1`, the melting point stood at 128 °C. For the compound `O=C(Nc1ccc(F)cc1)N1CCCCN1`, the melting point fell in the range of 78.5 to 79.5 °C. With `Oc1cccc(CCc2nc3ccccc3s2)c1` the figure was 129 to 130 °C.

Compound `COc1ccc(Cl)cc1CNc1nc(Cl)nc2c1ncn2[C@@H]1SC[C@@H](O)[C@H]1O` returned a melting point of 189 to 190 °C. Consider `Cc1cc(-c2cccc(N)n2)c(C)cc1OCCN1CCN(CCc2ccccc2)CC1`, for which the melting point is above 220 °C. The compound `COc1ccccc1CN1CCCc2cc(OCc3ccccc3)c(OC)cc2C1` showed a melting point of 105 to 106 °C. Turning to `O=S(=O)(c1ccc(CO)cc1)N1CCCC1c1ccc(F)cc1` (racemic), the melting point stood at 107 °C.

`COc1cc(C(C)=O)ccc1NCCCN1CCC(c2noc3cc(F)ccc23)CC1` yielded a melting point of 96 to 98 °C. With `Cc1cc(-c2cc(=O)n(C)[nH]2)c(F)cc1Cl` the figure was 155 to 156 °C; with `O=c1n(CCO)c2cc(Br)c(Br)c(Br)c2n1CCO`, 201 to 204 °C; with `CCCCNc1n[nH]c(C)c1C(=O)OCC`, 109 to 110 °C. With `O=C(O)C1C=COc2cc(Cl)c(Cl)cc21` (centres undefined) the figure was 114 to 117 °C; with `COc1nc(N)nc2c1CCC2`, 134 to 135 °C; with `Cc1cc(NS(=O)(=O)c2ccc(Br)cc2)cc(C)c1S(=O)(=O)C[N+](=O)[O-]`, 164 to 166 °C.

Compound `Cc1cccc(N2CCN(c3ccnc4sc(C(N)=O)c(N)c34)CC2C)c1` (centres undefined) showed a melting point of 215 to 217 °C.

Regarding `CN1CCN(c2ccnc3c(NC(=O)c4c(Cl)cccc4Cl)cc(Cl)cc23)C1=O`, the melting point was above 250 °C. With `CC(Oc1ccc(-c2ccc(Cl)cc2Cl)cc1)C(O)CCc1cccnc1` (centres undefined) the figure was 98 to 100 °C; with `c1ccc(COC[C@H](CP(c2ccccc2)c2ccccc2)P(c2ccccc2)c2ccccc2)cc1`, 88 °C; with `CCCCCCCCCCCCCCOc1ccc(CC(=O)OC)cc1F`, 38 to 40 °C. With `CN1CCC(CC(=O)N2c3ccccc3NC(=O)c3ccccc32)CC1` the figure was above 95 °C. The compound `CC12CCC(OC(=O)c3ccc(N)cc3)CC1=CCC1C2CCC2(C)C(=NO)CCC12` (centres undefined) showed a melting point of 165 to 168 °C.

Compound `O=C1CCC(N2Cc3c(OCc4cccc(CN5CCOCC5)c4)cccc3C2=O)C(=O)N1` (centres undefined) showed a melting point of 247 to 249 °C. `Clc1cccc(Oc2ccc(OCc3cc(C4CC4)no3)cc2)n1` returned a melting point of 128 to 130 °C. With `COc1cc2c(cc1OC)C(c1ccccc1)=NC(c1cccnc1)C2` (centres undefined) the figure was 180 to 182 °C; with `Fc1ccc(-c2nc(SCSc3nc(-c4ccc(F)cc4)c(-c4ccc(F)cc4)[nH]3)[nH]c2-c2ccc(F)cc2)cc1`, 265 °C; with `COCCO[C@@H]1c2ccn3c(Cl)c(C)nc3c2N[C@H](c2ccccc2)[C@H]1O`, 123 to 126 °C. As for `COc1ccccc1-c1cccc(C#N)c1`, the melting point was found to be 58 °C. In turn, `COCCOc1ccc(CCCOC(=O)N2CCOCC2)c(Oc2ncc(C(F)(F)F)cc2Cl)c1` registered a melting point of 82.3 to 82.4 °C. With `COc1cc2ccsc2c(Cl)c1Cl` the figure was 103 to 104 °C. On to `O=C(O)c1cn(C2CSC2)c2c(F)c(F)c(F)cc2c1=O`, for which the melting point was in the range of 172 to 175 °C. Regarding `NC(=O)N(O)Cc1ccoc1`, the melting point was in the range of 125 to 128 °C. `CCc1ccc(S(=O)(=O)n2c(CCC(=O)O)cc3cc(Cl)ccc32)cc1`: the melting point fell in the range of 130 to 133 °C.

On to `O=C(O)COc1cccc(CCc2nc(-c3ccccc3)c(-c3ccccc3)o2)c1`, for which the melting point was 153 to 154 °C.

`COc1ccc(S(=O)(=O)Nc2ccc(CCCC(=O)O)nc2)cc1` displayed a melting point of 129 to 130 °C.
